Reference: patent publication US20230414624A1, “METHODS OF TREATING NEUROLOGICAL VENTILATORY INSUFFICIENCY” (Enalare Therapeutics Inc., priority 2022, published 2023)
Entries after “also recorded” stand apart in the source; their conditions may differ.

Legend:
premature lambs = assay: Premature (preterm) lamb proof of concept study: spontaneous ventilation under IV bolus and ascending continuous infusion; type: in vivo
Procedure: One set of twin lambs were to be delivered premature via cesarian section, stabilized and managed for four hours. […] The protocol was reviewed and approved by the Institutional Animal Care and Use Committee at Thomas D. Morris, Inc., where the study was conducted.
During delivery and with local anesthesia (1 ml; 2% Lidocaine), lambs were instrumented with an endotracheal tube as well as carotid arterial and jugular catheters through an incision at approximately the midpoint of the anterior neck. Once the umbilical cord was tied and severed, lambs were transferred to a heated surgical bed under a radiant warming lamb. The arterial catheter was connected to a transducer for pressure monitoring and the venous catheter was connected to a pump for continuous infusion of 5% dextrose in water (D5W) at a rate of 6 ml/kg/hr. A reaction thermistor was inserted to monitor temperature and lambs were covered with plastic to minimize evaporative heat loss. The airway was suctioned and Surfactant (Curosurf, 2.5 ml/kg) was administered intratracheally over a period of 5 minutes in 4 positions (Trendelenburg, reverse Trendelenburg, and left and right lateral decubitus positions). Lambs were to receive four mechanical breaths for lung recruitment and then started on CPAP initiated at 5 cmH2O and continuously optimized to effect (4-8 cmH2O) along with fraction of inspired oxygen (FIO2) over the course of the study.
The formulation used was a 10 mg/mL aqueous solution (adjusted for the hydrogen sulfate salt and impurities) with a citric acid buffer and a pH of 3.2. The infusion was with ascending dose hourly, while the second lamb was to serve as sham control. […] The four, hourly doses are described in table 1.
For pulmonary function assessments, a pneumotach was placed between the endotracheal tube and the CPAP connector. At least ten representative breaths free of movement of atypical breathing artifact were recorded using a pulmonary function system designed for neonatal research (NewLifeBox-R, Advanced Life Diagnostics, Weener, Germany). For each period the rate, tidal volumes and minute ventilation was derived from an average of the ten breaths. To maintain a stable plain of anesthesia, repeat doses of fentanyl (1 μg IM) were given as needed throughout the protocol based on blood pressure response to stimulation. At the conclusion of the study, animals were sacrificed and tissue sampled harvested for subsequent histopathology.

adult humans = conditions: 0.4 mg/kg/hr infusion; cited from earlier work
[1] = 3 mg/kg IV bolus, animals; cited from earlier work
[2] = test lamb, ascending hourly infusion

CCCNc1nc(NCCC)nc(N(C)OC)n1 [Compound 1, N-(4,6-Bis-n-propylamino-[1,3,5]triazin-2-yl)-O,N-dimethyl-hydroxylamine]
Spontaneous breathing, both lambs (premature lambs; after bolus administration of a loading dose): immediately resulted in spontaneous breathing in both lambs
Respiratory rate (RR), course over the four hours (premature lambs; in vivo): gradually decreased
Spontaneous breathing after IV bolus (premature lambs; sham lamb 4.1 kg, no spontaneous breathing before, single IV bolus 2.4 mg/kg, no infusion): the lamb began breathing spontaneously. After several minutes, the spontaneous breathing efforts abated
Spontaneous breathing after IV bolus loading dose (premature lambs; test lamb 3.2 kg, no spontaneous breathing before, IV bolus 3.1 mg/kg during 0.4 mg/kg/hr infusion, then continuous infusion for four hours): the lamb began breathing spontaneously and never again required manual intervention
Spontaneous minute ventilation (MV) at baseline and for 10 minutes after start of infusion (premature lambs; test lamb, 0.4 mg/kg/hr infusion without loading dose): zero
Spontaneous minute ventilation (MV) immediately following the bolus loading dose (premature lambs; test lamb, IV bolus 3.1 mg/kg): approximately 1,100 mL/min
End tidal carbon dioxide level (EtCO2), course over the four hours (premature lambs; [2]): concomitant decrease; also recorded: progressive decline
Heart rate and mean arterial pressure through the four hours (premature lambs; [2]): stable
Tidal volume, course over the four hours (premature lambs; [2]): consistent rise
Minute ventilation (MV), course over the four hours (premature lambs; test lamb, ascending hourly infusion 0.4, 1.1, 2.0, 12 mg/kg/hr): continued to rise
Minute ventilation (MV), all but the first three measurements of spontaneous breathing (premature lambs; test lamb, ascending hourly infusion, 1,344 mL/min = maximal MV of literature mechanical ventilation): exceeded 1,344 mL/min
Tidal volume per kg of body weight versus lung protective range (premature lambs; test lamb, ascending hourly infusion, range 4 to 6 mL/kg): at least as deep and ultimately surpassed the lung protective range of 4 to 6 mL/kg; also recorded: always within or above the noted target tidal volume range
Respiratory rate (premature lambs; test lamb, whole study period, normal newborn lamb 36 to 48): ≥ 70 breaths per minute
Efficacy of the low dose in adult humans (adult humans): minimal effect; also recorded: limited efficacy; also recorded: humans; minimal efficacy
Plasma levels after bolus intravenous injection [1]: transient therapeutic plasma levels
